The source of these data is patent US7001770B1, “Calpain inhibitors and their applications” (priority 1998, dated 2006).

Square brackets hold non-standard residues; d marks the D form. Peptide text beside a SMILES is read from it. Nle = CCCC[C@H](N)C(=O)O

One assay deals with proteasome. Conditions: below 50 μM primarily an inhibitor of calpain; cited from earlier work.
The subject of the next assay is HLF cells. As to the kind of experiment: Infectivity: copies of rAd-p53 DNA by PCR. It is filed as cell-based. As for the experimental part:
The effects of the use of calpain inhibitors, particularly CI-1, were investigated in their ability to increase the infectivity of the HLF tumor cell line to rAd-p53. HLF cell lines were prepared in substantial accordance with the teaching of example 6 herein. The cells were exposed to two concentrations of rAd-p53 in the presence and absence of 10 μM CI-1. The total number of copies of rAd-p53 DNA were determined by PCR as described in Example 6. The results of these experiments are presented in Table 4 below and in graphical form in FIG. 7 of the attached drawings.
A similar experiment was conducted to determine the effect of pre-treatment of the cells with the calpain inhibitor. The cell lines were prepared as indicated above. In this experiment, one group of cells was pretreated with a 10 μM concentration of CI-1 for a period of 6 hours prior to exposure to the Ad-p53. The control sample was not pretreated. The results of these experiments are presented in Table 5 below and in graphical form in FIG. 7 of the attached drawings.
The following materials were obtained from Perkin Elmer Corporation under Part No. N808-0028: Gene Amp 10× Taqman Buffer A, 25 mM MgCl2, 5 μM Oligonucleotide Primer “A”, 5 μM Oligonucleotide Primer “B”, 5 units/mL AmpliTaq® Gold DNA Polymerase, 10 μM Taqman Probe. Deoxynucleotide Triphosphates, dATP, dCTP, and dGTP are 10 mM. dUTP is 20 mM. […]

The next assay relates to NF-kB. As to the kind of experiment: Gel shift assay. It counts as cell-based. Conditions: HLF cells; 10 μM CI-1; 24 hours post treatment. On the procedure:
(§1) The lanes on the gel are labelled as follows: Lane 1=DMF solvent alone control; Lane 2=10 μM CI-1; Lane 3=a null control vector based on ACN53 without the p53 transgene (ZZCB); Lane 4=ZZCB+10 μM CI-1; Lane 5=ACN53 alone and Lane 6=ACN53+ 10 μM CI-1. Panel A illustrates the induction of NF-kb upon administration of calpain inhibitor 1. Panel B illustrates the induction of AP-1 upon administration of calpain inhibitor 1.
(§2) In contrast to these studies, the present invention further provides a method of enhancing transcription of a therapeutic transgene from the CMV promoter. The term “enhancing transcription” refers to an increase in the transcriptional activity of those sequences operably linked to the CMV promter. The term CMV promoter means the immediate early promoter of the cytomegalovirus. The promoter may be isolated as a restriction endonuclease fragment from the commercially available vector pCMVβ (GenBank Accession Number U02451). […] The CMV promoter is a strong constituitive promoter widely utilized in the expression of exogenous transgenes from viral vectors. Recent reports indicated an upregulation of the CMV promoter driven genes in response to recombinant adenoviral infection. […] In response to calpain inhibitor 1 treatment, a 42% increase in NF-kB activation was detected, and a 50% increase in AP1 activation was detected as quantified by densitometer readings. […]

The subject of the next assay is AP-1. Kind of assay: Gel shift assay. Conditions: HLF cells; 10 μM CI-1; 24 hours post treatment. It is filed as cell-based. As for the experimental part:
as §1, §2

On to `CCCC[C@@H](C=O)NC(=O)[C@H](CC(C)C)NC(=O)[C@H](CC(C)C)NC(C)=O` [CI-1, N-acetyl-leu-leu-norleucinal] (Ac-Leu-Leu-[Nle]-aldehyde), for which, in the assay with proteasome, the “concentration above which CI-1 inhibits proteasome function” value is “above 50 μM”. Also, the “increase in intracellular viral DNA” value with HLF cells (10 μM CI-1, no pre-treatment, viral concentration 1×10^7 and 1×10^8 particles) came out at 50 fold. For the same compound, the “infectivity of the cells to the virus relative to untreated cells” value in the assay on HLF cells (6 hour pretreatment with 10 μM CI-1, ACN53 3×10^7) was “approximately 130 times”. Besides, the “increase in NF-kB activation (densitometer)” value in the assay on NF-kB amounted to 42%. The “increase in AP1 activation (densitometer)” value with AP-1 is listed as 50%.
